Measured values published in patent US20080269266A1, “NOVEL COMPOUNDS 747” (ASTRAZENECA AB, priority 2007, published 2008).
pIC50: −log10 of the molar value.

Key:
[1] = molecular target: T1, human cytochrome P450 (CYP) 3A4 (Homo sapiens, UniProt P08684); test: Cytochrome P450 Inhibition Assay 3A4; type: in vitro ADME; conditions: test compound final concentrations 0.1-10 μM; substrate BFC
T1 construct: made in house; host or cells: yeast cell lines (microsomal fractions)
Protocol: The inhibitory potential (IC50) of test compounds against 5 human cytochrome P450 (CYP) isoforms (1A2, 2C9, 2C19, 3A4 and 2D6) was assessed using an automated fluorescent end point in vitro assay modified from Crespi (Crespi and Stresser, 2000). Microsomal subcellular fractions prepared from Yeast cell lines expressing each human CYP isoform were used as an enzyme source in this assay. The activity of the 5 major human CYPs was determined from the biotransformation of a number of coumarin substrates to fluorescent metabolites, in the presence of NADPH. […] Stock solutions of each CYP, with its respective substrate, were prepared in phosphate buffer pH7.4 (see Table 1) and 178 μl was added to the well of a black solid, flat bottom, 300 μl 96 well is microtitre plate (Corning Costar). […] After pre-incubating at 37° C. for 5 min the reactions were started with addition of NADPH (20 μl, concentration shown in Table 1). […] The appropriate solvent controls and substrate blanks were included in each experiment to assess control activity and identify any inherent fluorescence due to the test compounds. […] The plates were read on a fluorimeter (Spectrafluor Plus) at the appropriate excitation and emission wavelengths (listed in Table 2) and the percent activity, corrected for control, was plotted against the test compound concentration.

[2] = molecular target: T2, human IR (Homo sapiens, UniProt P06213); test: Inhibition of Insulin Receptor Phosphorylation in CHOT cells; type: cell-based; conditions: for pIC50: median, CHOT cells stimulated with 30 nM Insulin
T2 construct: expressed in transfected cells; host or cells: CHOT cells (CHO stably transfected with human IR)
Protocol: This immunofluorescence end point cell assay measures the ability of a test compound to reduce the measured levels of IR phosphorylation after insulin stimulation in CHOT cells. CHOT cells are Chinese Hamster Ovary cells (CHO) stable transfected with human IR. CHOT cells are routinely cultured in Hams F12 growth medium supplemented with 200 ug/ml Geneticin, 2.5 mM HEPES, 2 mM L-Glutamine (Invitrogen Code no. 25030-024) and 10% (v/v) foetal bovine serum (FBS) in a 5% CO2 air incubator at 37° C.
To undertake the assay, the CHOT cells are seeded at 5×10^3 cells/well in Hams F12 medium plus 2.5 mM HEPES, 1% foetal calf serum and 2 mM L-Glutamine in 96-well black Packard View plates (PerkinElmer 6005182) and incubated at 37° C. (+5% CO2) in a humidified incubator. The following day, the plates are dosed with 10 μl of 10× concentrated compound (diluted from 10 mM stock in DMSO and Hams F12 without serum) and the plates are returned to a humidified 37° C. (+5% CO2) incubator for 30 minutes. […]
Following the compound treatment, the CHOT cells are stimulated with a final concentration of 30 nM Insulin (Sigma #I-9278) for 10 minutes at 37° C. […] Additionally, in-house antibodies raised against phospho IR were also used at a suitable titre determined for each batch. […]
The Green Fluorescent phospho IR-associated signal in each well was measured using an Acumen Explorer HTS Reader (TTP Labtech Ltd., Cambridge). Phospho IR-associated fluorescence emission can be detected at 530 nm following excitation at 488 nm. The instrument is a laser-scanning fluorescence microplate cytometer, which samples the well at regular intervals and uses threshold algorithms to identify all fluorescent intensities above the solution background without the need to generate and analyse an image. These fluorescent objects can be quantified and provide a measure of the phospho IR levels in cells. Fluorescence dose response data obtained with each compound was exported into a suitable software package (such as Origin) to perform curve fitting analysis. […]

T2 sequence (P06213 28-1382): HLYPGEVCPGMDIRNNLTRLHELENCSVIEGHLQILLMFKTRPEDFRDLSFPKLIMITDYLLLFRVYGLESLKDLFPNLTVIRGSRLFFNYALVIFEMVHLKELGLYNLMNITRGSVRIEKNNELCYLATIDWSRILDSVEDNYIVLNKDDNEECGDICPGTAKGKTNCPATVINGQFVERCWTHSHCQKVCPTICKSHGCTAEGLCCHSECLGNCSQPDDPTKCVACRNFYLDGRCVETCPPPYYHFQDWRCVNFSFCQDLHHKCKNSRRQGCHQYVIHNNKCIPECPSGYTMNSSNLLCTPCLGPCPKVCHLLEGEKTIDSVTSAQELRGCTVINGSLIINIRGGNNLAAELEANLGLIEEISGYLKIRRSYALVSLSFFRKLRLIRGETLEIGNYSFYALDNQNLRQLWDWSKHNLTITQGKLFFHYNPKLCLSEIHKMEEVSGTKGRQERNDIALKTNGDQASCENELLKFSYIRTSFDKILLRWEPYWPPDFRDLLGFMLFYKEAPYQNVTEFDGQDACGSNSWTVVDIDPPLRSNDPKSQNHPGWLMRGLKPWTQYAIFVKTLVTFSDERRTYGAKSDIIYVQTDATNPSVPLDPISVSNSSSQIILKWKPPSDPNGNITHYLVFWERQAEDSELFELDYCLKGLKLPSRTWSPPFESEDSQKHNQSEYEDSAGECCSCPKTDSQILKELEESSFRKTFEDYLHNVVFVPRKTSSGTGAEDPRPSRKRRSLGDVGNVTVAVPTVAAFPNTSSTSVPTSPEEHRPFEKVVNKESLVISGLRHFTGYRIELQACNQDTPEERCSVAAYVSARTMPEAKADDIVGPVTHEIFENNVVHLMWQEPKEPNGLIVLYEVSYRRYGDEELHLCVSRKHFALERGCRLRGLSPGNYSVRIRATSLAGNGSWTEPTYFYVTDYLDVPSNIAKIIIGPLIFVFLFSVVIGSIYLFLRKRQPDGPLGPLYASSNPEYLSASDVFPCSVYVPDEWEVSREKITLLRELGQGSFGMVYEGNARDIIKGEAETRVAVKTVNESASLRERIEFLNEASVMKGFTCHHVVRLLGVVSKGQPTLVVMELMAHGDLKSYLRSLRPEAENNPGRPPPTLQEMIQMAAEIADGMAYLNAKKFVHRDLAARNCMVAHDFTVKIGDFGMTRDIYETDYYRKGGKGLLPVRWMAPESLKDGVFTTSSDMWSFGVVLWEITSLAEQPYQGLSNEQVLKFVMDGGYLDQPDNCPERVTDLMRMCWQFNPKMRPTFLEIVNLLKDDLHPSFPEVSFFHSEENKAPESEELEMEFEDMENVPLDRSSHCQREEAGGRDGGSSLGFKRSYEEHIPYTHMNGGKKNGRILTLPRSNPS
T1 sequence (P08684 whole entry): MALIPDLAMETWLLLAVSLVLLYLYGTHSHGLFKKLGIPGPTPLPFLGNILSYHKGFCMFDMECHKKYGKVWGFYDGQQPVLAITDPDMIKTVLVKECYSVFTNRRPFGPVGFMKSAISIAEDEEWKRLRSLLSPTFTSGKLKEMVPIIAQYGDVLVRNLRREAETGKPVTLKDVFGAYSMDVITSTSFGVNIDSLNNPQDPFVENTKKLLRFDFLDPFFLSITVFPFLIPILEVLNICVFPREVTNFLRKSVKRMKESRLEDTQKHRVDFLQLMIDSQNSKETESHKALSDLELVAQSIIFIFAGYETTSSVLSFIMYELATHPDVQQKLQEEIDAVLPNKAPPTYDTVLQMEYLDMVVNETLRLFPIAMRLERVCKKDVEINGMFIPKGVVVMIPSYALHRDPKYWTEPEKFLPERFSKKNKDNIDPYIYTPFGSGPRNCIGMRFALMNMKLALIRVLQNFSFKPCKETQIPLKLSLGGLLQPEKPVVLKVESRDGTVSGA

pIC50 [1]	pIC50 [2]	difference in the Inhibition of Insulin Receptor Phosphorylation assay ([2]; Example 1 compared with Comparative Example A)	SMILES
< 5.00	8.49	–	CCc1cc(Nc2cc(OC)nc(N3CCC[C@H]3c3cc(-c4ncccn4)no3)n2)n[nH]1 [Comparative Example A, (S)-6-Methoxy-2-{2-[3-(pyrimid-2-yl)isoxazol-5-yl]pyrrolidin-1-yl}-4-(5-ethyl-1H-pyrazol-3-ylamino)pyrimidine]
< 5.00	7.46	ten-fold	COc1cc(Nc2cc(C)n[nH]2)nc(N2CCC[C@H]2c2cc(-c3ncccn3)no2)n1 [Example 1, (S)-6-Methoxy-2-{2-[3-(pyrimid-2-yl)isoxazol-5-yl]pyrrolidin-1-yl}-4-(5-methyl-1H-pyrazol-3-ylamino)pyrimidine]
